These results are taken from patent publication US7626082B2, “Flowering induction” (Agriculture Victoria Services Pty Ltd., priority 2003, dated 2009).

Where only a bound is given, the exact number is not on record here.

Type in all cases: in vivo
One test has as its system FT gene. As to the kind of experiment: FT gene induction levels in sprayed transgenic arabidopsis plants (real-time RT-PCR). The settings on record: for fold gene induction: short day conditions. Here is the method:
Total RNA was converted to cDNA using standard protocols using 1-5 ug of RNA as measured by OD260.
Quantitative RT-PCR was performed in the BioRad iCycler instrument using standard protocols and SyberGreen as reporting dye
Actin gene levels were assayed using oligonucleotides GTF037 (Seq ID. No. 28) 5′[…]3′ and GTF038 (Seq ID No. 29) 5′[…]3′, and served as standards to normalize measurements of other genes.
To create a copy number calibration curve for individual genes, standards were made up from corresponding PCR products, measuring their concentration using gel serial dilution methods and spectrophotometry. Standard copy numbers were varied from 1 to 10^8 with 10× increments.
Amplifications were performed in triplicates, error rates were estimated by adding the average variance between triplicate samples, and average error of the standard curve fit of the standards of both the gene of interest and of the actin standard.
We have also measured the FT gene induction levels in the sprayed transgenic arabidopsis plants compared with the non-sprayed or non-transgenic controls in plants grown in short day conditions, the results are summarized in the table below:
The methodology we used to measure the gene induction levels was essentially the same as described elsewhere in the patent, except that we used the arabidopsis gene-specific primers NIK13 5′[…]3′ (SEQ ID NO: 34) and NIK14 5′[…]3′ (SEQ ID NO: 35).

In test [1] the test system is Arabidopsis plants containing the pHTOP::FT inducible construct. As to the kind of experiment: Time to flowering of arabidopsis plants sprayed with DEX inducer. On the set-up: time to flowering: unit not given here.
The subject of test [2] is transgenic arabidopsis plants carrying both the pHTOP-FT construct and the LhG4-GR construct. Put plainly: Transgenic arabidopsis grown in the presence of DEX: flowering and GUS staining. Here is the method:
(A) A plant grown on a 30 μM MS-DEX plate; (B) No DEX control; (C) and (D) GUS staining of leaves from induced plants; (E) GUS staining of a leaf from a non-induced LhGr/pHtop-FT plant; GUS staining of a leaf from a Col wild type plant.
The arabidopsis FT cDNA was inserted into the pHTOP vector system to facilitate inducible expression of the gene using heterologous transcription factor system LhG4^19,27.
This inducible system allows for simultaneous expression of two genes from the same reporter construct. In the experiment described here the GUS gene was used as a second gene in addition to FT.

Consider `C[C@@H]1C[C@H]2[C@@H]3CCC4=CC(=O)C=C[C@]4(C)[C@@]3(F)[C@@H](O)C[C@]2(C)[C@@]1(O)C(=O)CO` [DEX, dexmethasone], for which the “induction in the cDNA level as assayed in real-time RT-PCR” value in the test on FT gene (1 mM spray of inducer) is “lesser induction”; with FT gene (plants 3 days after treatment with high level of the DEX inducer) it was more than 100 fold. Besides, the fold gene induction is reported as 1x in the test on FT gene (LhG4-mGR driver plants, sprayed twice 30 μM); 1x in the test with FT gene (pHTOP::FT plants, sprayed twice 30 nM); 20x with FT gene (pHTOP::FT plants, sprayed twice 1 μM); 120x in the test with FT gene (pHTOP::FT plants, sprayed twice 30 μM); 1x with FT gene (wild type plants, sprayed twice 30 μM). The time to flowering in test [1] (LhG4-mGR driver, line S7, sprayed twice 30 μM, unit not in table (b146 speaks of days)) is given as 20; in test [1] (pHTOP::FT, line COF3-12, sprayed twice 30 nM), 20; in test [1] (pHTOP::FT, line COF3-12, sprayed twice 1 μM) it was 20; in test [1] (pHTOP::FT, line COF3-12, sprayed twice 30 μM) it was 16.5; in test [1] (pHTOP::FT, line COF7-30, sprayed twice 30 nM) it was 20; in test [1] (pHTOP::FT, line COF7-30, sprayed twice 1 μM), 19. Further, the time to flowering in test [1] (pHTOP::FT, line COF7-30, sprayed twice 30 μM) is recorded as 14.86; in test [1] (wild type, line Col, sprayed twice 30 μM), 20. Further, in test [1] (pHTOP::FT plants sprayed with 30 mM DEX, 6 days after spraying (FIG. 12)), the emergence of inflorescences result was “inflorescences have emerged”. For the same molecule, the “reduction of time to flowering” value in test [1] (spraying with 30 mM inducer, compared to non-transgenic or non-sprayed plants) was “up to 6 days”. Moreover, the flowering entry in test [2] (pHTOP-FT + LhG4-GR plants grown in the presence of DEX (30 μM MS-DEX plate, FIG. 5)) is “accelerated flowering”. In addition, the “GUS staining (reporter gene activity)” value in test [2] (pHTOP-FT + LhG4-GR plants grown in the presence of DEX (FIG. 5)) is given as “GUS staining”.
